Laboratory results as given in ChEMBL document CHEMBL1201862, “PubChem BioAssay data set” (2004).
Active and inactive are the calls of the source.

Assays:
[1] = biological target: T1, High affinity choline transporter 1 (Homo sapiens, UniProt Q9GZV3); assay: CHT inhibitors, dose response, cell-based, 5-point CRC, membrane potential dye (AID 504840); format: functional
T1 sequence (Q9GZV3 whole entry): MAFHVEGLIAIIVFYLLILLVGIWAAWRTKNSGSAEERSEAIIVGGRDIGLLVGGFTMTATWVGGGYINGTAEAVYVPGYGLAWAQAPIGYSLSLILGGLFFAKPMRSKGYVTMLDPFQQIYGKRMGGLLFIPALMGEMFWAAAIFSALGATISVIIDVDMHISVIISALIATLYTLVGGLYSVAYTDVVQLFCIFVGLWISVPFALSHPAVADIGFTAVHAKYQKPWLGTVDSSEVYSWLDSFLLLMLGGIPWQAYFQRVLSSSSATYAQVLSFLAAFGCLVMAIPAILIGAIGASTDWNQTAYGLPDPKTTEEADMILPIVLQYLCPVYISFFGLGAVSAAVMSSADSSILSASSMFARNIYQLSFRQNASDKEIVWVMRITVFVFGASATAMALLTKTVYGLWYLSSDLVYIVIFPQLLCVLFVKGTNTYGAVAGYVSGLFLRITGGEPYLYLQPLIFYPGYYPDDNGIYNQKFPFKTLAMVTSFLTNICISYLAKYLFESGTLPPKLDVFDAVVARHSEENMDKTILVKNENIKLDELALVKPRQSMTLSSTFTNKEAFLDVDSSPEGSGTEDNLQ

Protein RecA = biological target: T2, Protein RecA (Mycobacterium tuberculosis, UniProt P9WHJ3); assay: Fluorescence Cell-Free Homogeneous Dose Retest to Identify Inhibitors of RecA-Intein Splicing Activity. [Related pubchem assays (depositor defined):AID2097, AID2223, AID489010, AID492950]; format: functional
T2 sequence (P9WHJ3 whole entry): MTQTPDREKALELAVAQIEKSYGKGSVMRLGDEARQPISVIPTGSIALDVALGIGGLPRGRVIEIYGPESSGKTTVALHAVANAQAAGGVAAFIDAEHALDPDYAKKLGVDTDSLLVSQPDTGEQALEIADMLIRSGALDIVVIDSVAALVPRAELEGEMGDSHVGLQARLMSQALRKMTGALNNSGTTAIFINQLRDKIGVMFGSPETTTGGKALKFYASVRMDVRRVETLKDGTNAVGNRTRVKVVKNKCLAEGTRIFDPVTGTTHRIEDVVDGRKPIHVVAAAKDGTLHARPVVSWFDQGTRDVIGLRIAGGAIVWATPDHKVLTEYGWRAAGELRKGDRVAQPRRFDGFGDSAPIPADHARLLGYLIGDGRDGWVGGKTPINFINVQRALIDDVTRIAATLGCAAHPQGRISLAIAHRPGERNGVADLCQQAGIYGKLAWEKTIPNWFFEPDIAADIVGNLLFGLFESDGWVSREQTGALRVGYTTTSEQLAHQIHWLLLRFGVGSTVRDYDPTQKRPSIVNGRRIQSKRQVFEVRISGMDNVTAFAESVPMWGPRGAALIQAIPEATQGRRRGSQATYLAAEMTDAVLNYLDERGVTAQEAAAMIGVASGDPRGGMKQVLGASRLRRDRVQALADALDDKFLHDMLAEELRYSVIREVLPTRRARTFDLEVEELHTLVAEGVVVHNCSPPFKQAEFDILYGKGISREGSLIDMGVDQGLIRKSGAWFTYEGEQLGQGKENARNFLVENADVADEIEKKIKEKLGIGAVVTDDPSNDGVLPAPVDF

HEK293 = assay: inhibitors of LMP1-driven NF-kB reporter, dose response, cell-based, HEK293, luciferase, cherry-pick (AID 588343); format: functional; conditions: Homo sapiens
[2] = biological target: T3, Replicative DNA helicase DnaB (Mycobacterium tuberculosis, UniProt P9WMR3); assay: DnaB intein splicing inhibitors, dose response, biochemical, cell-free fluorescence (AID 449749); format: functional
T3 sequence (P9WMR3 whole entry): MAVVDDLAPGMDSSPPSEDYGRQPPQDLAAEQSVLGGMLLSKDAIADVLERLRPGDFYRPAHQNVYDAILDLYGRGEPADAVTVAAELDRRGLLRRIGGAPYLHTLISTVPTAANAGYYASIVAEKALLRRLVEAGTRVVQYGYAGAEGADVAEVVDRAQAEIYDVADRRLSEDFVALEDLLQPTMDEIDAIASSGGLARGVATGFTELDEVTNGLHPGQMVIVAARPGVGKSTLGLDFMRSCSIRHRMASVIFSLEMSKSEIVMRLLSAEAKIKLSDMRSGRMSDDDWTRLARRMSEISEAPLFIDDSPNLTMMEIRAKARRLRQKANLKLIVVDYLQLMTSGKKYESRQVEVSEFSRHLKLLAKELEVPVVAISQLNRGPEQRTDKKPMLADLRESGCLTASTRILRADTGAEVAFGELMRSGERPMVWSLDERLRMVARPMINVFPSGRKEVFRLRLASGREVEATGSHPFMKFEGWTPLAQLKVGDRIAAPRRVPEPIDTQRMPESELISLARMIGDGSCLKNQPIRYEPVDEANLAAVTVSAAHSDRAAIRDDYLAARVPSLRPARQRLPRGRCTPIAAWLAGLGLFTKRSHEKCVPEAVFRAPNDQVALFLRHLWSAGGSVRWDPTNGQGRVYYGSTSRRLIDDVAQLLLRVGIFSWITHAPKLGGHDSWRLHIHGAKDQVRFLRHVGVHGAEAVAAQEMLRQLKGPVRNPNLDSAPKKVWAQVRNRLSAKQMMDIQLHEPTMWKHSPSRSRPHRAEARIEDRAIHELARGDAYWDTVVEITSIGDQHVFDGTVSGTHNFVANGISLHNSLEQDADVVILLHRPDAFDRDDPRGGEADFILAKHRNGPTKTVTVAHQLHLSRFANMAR

Aminopeptidase N = biological target: T4, Aminopeptidase N (Plasmodium falciparum FcB1/Columbia, UniProt O96935); assay: P. falciparum M1AAP inhibitors, biochemical, fluorogenic H-Leu-NHMec substrate, 1536-well (AID 1445); set-up: species or system Plasmodium falciparum 3D7, 3D7
T4 sequence (O96935 whole entry): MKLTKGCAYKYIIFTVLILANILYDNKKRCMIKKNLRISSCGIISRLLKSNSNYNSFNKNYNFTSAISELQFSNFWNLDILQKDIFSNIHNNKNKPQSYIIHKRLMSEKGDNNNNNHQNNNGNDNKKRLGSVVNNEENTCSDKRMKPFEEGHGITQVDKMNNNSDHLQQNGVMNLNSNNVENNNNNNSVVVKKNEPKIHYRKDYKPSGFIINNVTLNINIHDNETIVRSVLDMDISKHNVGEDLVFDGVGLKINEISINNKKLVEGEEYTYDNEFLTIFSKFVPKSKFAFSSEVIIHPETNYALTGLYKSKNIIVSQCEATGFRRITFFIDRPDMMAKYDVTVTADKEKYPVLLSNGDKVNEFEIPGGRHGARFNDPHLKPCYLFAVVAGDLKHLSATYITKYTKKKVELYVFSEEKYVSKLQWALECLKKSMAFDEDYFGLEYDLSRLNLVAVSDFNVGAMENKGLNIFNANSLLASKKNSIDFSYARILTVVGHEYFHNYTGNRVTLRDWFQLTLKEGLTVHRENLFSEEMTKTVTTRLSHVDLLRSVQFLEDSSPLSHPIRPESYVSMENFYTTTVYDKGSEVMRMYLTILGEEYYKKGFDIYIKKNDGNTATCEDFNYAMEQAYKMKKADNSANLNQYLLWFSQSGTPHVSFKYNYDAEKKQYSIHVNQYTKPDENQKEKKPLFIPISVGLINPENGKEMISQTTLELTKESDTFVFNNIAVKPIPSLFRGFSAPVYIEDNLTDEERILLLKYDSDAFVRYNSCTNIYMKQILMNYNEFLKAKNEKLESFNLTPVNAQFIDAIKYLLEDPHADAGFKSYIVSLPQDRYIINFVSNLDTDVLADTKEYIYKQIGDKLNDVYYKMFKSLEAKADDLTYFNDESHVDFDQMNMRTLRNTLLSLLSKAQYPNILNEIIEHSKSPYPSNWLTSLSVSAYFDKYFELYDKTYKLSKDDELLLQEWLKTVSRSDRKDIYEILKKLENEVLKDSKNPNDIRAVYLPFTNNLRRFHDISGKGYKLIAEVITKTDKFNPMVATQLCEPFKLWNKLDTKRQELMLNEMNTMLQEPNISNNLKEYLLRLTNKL

[3] = biological target: T5, Endoribonuclease toxin MazF (Escherichia coli K-12, UniProt P0AE70); assay: fluorescent RNA oligo signal without MazF, dose response, counter-screen for MazEF activator project, biochemical, fluorescence, single-stranded RNase substrate (AID 588502); format: functional
T5 sequence (P0AE70 whole entry): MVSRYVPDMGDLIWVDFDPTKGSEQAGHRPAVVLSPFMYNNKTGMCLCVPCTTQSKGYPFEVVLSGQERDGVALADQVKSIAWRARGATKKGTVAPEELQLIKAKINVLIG

[4] = biological target: T5, Endoribonuclease toxin MazF; assay: MazF toxin RNase activators, dose response, biochemical, fluorescence, single-stranded RNA substrate, uHTS hits (AID 588481); format: functional
[5] = NIH-3T3 fibroblast cytotoxicity, dose response, cytotoxicity control, cell-based, fluorescence, Alamar Blue, secondary assay (AID 2327); format: functional;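 also: NIH-3T3 mouse fibroblasts cultured with fluconazole at 8 µg/mL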
Streptokinase A = biological target: T6, Streptokinase A (Streptococcus pyogenes serotype M1, UniProt P10520); assay: S. pyogenes streptokinase expression inhibitors, potency, dose response, plasminogen activation absorbance, OD405 (AID 1914); format: functional, Streptococcus pyogenes M1 GAS;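 also: secreted streptokinase activity via plasminogen activation per viability signal from cell pellet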
T6 sequence (P10520 whole entry): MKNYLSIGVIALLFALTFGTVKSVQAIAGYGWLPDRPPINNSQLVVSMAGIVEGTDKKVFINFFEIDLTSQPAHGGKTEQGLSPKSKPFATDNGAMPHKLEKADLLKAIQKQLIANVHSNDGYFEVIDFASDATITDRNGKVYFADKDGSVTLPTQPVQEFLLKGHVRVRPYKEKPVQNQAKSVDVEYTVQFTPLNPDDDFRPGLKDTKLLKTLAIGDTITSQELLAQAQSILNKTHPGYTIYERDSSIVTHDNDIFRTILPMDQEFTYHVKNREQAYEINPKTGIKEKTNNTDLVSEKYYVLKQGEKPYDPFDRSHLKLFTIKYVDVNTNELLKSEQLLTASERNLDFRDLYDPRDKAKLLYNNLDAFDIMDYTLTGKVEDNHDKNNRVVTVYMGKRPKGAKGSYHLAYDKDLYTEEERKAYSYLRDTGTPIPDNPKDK

[6] = test system: Streptococcus sp. 'group A'; assay: growth inhibition of control SK(-) GAS strain, dose response, counter-screen for streptokinase expression inhibitor project, luminescence, kanamycin, BacTiterGlo, confirmation (AID 1900); format: functional, organism-based
[7] = C. albicans growth with fluconazole, confirmation, fluorescence, retest (AID 2467); format: functional, cell-based
Streptococcus = assay: Group A Streptococcus viability loss, dose response, counter-screen for streptokinase expression inhibitor project, luminescence, BacTiterGlo (AID 1915); format: functional, organism-based;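 also: potency for reduction of bacterial viability or growth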
Protein skinhead-1 = biological target: T7, Protein skinhead-1 (Caenorhabditis elegans, UniProt P34707); format: functional
T7 sequence (P34707 whole entry): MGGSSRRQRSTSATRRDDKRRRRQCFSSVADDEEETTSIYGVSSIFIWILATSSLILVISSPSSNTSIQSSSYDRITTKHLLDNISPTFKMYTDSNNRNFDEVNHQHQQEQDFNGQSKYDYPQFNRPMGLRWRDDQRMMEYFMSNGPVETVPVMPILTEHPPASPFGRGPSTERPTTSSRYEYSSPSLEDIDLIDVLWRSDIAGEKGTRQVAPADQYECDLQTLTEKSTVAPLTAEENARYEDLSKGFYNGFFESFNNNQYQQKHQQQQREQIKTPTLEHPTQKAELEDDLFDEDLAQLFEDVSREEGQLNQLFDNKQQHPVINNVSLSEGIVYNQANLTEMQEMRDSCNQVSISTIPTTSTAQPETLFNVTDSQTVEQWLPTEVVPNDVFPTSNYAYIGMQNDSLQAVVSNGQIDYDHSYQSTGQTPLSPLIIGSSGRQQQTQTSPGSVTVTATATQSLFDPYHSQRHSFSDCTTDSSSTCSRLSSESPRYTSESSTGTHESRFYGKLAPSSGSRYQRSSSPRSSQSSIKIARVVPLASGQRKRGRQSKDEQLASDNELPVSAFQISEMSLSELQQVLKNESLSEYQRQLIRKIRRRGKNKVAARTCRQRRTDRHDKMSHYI

HeLa = assay: HeLa cell cytotoxicity, dose response, cytotoxicity control for MITF activator project, CellTiter-Glo luminescence, cherry-pick samples (AID 540259); format: functional, cell-based; conditions: Homo sapiens

Cc1cc(OC(C)C(=O)Nc2ccc(S(=O)(=O)Nc3onc(C)c3C)cc2)cc(C)c1Cl (configuration not stated)
IC50 [1]: 3.98 µM (active)

COc1cc(/C=C2/SC(=S)N(Cc3ccccc3)C2=O)ccc1OCC(=O)O
EC50 (Protein RecA): 6.85 µM (active)
AC50 (HEK293): 45.2 µM (active)
AC50 [2]: 4.22 µM (active)

O=C(Cc1ccc(F)cc1)N/N=C/c1ccc(-c2ccc(Cl)c(C(=O)O)c2)o1
IC50 (Aminopeptidase N): 22.9 µM (active)

NNS(=O)(=O)c1ccc(Sc2ccccn2)c([N+](=O)[O-])c1
EC50 [3]: > 99 µM (inactive)
EC50 [4]: 52.6 µM (inactive)

Cc1ccc(O)c(C2=NNC(c3ccc(Cl)cc3)C2)c1 (configuration not stated)
EC50 [5]: > 160 µM (inactive)
EC50 (Streptokinase A): > 150 µM (not active)
EC50 [6]: 4.36 µM (active)
EC50 [7]: 3.23 µM (active)
EC50 (Streptococcus): 9.12 µM (active)

CC1CC(=O)C2=C(C1)OC(N)=C(C#N)C2c1coc2ccccc2c1=O (configuration not stated)
EC50 [3]: > 99 µM (inactive)
EC50 [4]: > 99 µM (inactive)

C/C(=N\N=C(N)N)c1ccc(Cl)cc1Cl
IC50 [1]: 14.8 µM (active)

Cc1cccc(C)c1OCc1cc(C(=O)N2CCN(C3CCCC3)CC2)no1
IC50 (Protein skinhead-1): > 100 µM (inactive)
IC50 [1]: 19.1 µM (active)

Cc1nc(SCC(=O)Nc2cc(C)on2)c2c3c(sc2n1)CCCC3
EC50 [3]: > 99 µM (inactive)
EC50 [4]: > 99 µM (inactive)

CC1=C(C(=O)Nc2cccc(C(=O)NC3CCCCC3C)c2)SCCO1 (configuration not stated)
IC50 [1]: 13.2 µM (active)

COc1ccc(-c2ccc3ccccc3n2)cc1OC
AC50 (HeLa): 46.8 µM (active)

O=C(c1ccc(Cl)cc1)N1CCN(CCOc2ccccc2)CC1
AC50 (HEK293): > 350 µM (inactive)

COC(=O)C(C)N1C(=O)S/C(=C/c2cc(C)n(C(C)C)c2C)C1=O (configuration not stated)
AC50 (HeLa): 52.9 µM (active)

O=C(CSc1n[nH]c(-c2ccccc2)n1)Nc1ncc(Br)cc1Br
IC50 [1]: 14.5 µM (active)

CSC(=Nc1ccc(Cl)cc1)NS(=O)(=O)c1cccs1
EC50 [5]: > 150 µM (inactive)
EC50 [7]: 1.15 µM (active)

COC(=O)CN1C(=O)C2(C(C#N)=C(N)Oc3[nH]nc(-c4cccs4)c32)c2ccccc21 (configuration not stated)
IC50 (Aminopeptidase N): 36.7 µM (active)
